Results: PubChem BioAssay (NCI)
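GI50 = concentration required for 50% inhibition of growth. TGI is the concentration that stops growth completely.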

Legend:
Experiment in all cases: DTP human tumour cell line panel, 384-well format
A549 NSCLC = test system: A549 NSCLC
CCRF-CEM leukemia = test system: CCRF-CEM leukemia
COLO 205 colon = test system: COLO 205 colon
DU-145 prostate = test system: DU-145 prostate
HL-60(TB) leukemia = test system: HL-60(TB) leukemia
HS 578T breast = test system: HS 578T breast
KM12 colon = test system: KM12 colon
M14 melanoma = test system: M14 melanoma
MALME-3M melanoma = test system: MALME-3M melanoma
MCF7 breast = test system: MCF7 breast
MDA-MB-468 breast = test system: MDA-MB-468 breast
MOLT-4 leukemia = test system: MOLT-4 leukemia
NCI-H23 lung = test system: NCI-H23 lung
NCI-H460 NSCLC = test system: NCI-H460 NSCLC
NCI-H522 lung = test system: NCI-H522 lung
RPMI-8226 leukemia = test system: RPMI-8226 leukemia
SK-MEL-5 melanoma = test system: SK-MEL-5 melanoma
SN12C renal = test system: SN12C renal
SNB-19 CNS = test system: SNB-19 CNS
SR leukemia = test system: SR leukemia
SW-620 colon = test system: SW-620 colon
TK-10 renal = test system: TK-10 renal
786-0 renal = test system: 786-0 renal
A498 renal = test system: A498 renal
ACHN renal = test system: ACHN renal
BT-549 breast = test system: BT-549 breast
CAKI-1 renal = test system: CAKI-1 renal
EKVX NSCLC = test system: EKVX NSCLC
HCC-2998 colon = test system: HCC-2998 colon
HCT-15 colon = test system: HCT-15 colon
HOP-62 NSCLC = test system: HOP-62 NSCLC
HOP-92 NSCLC = test system: HOP-92 NSCLC
HT29 colon = test system: HT29 colon
IGROV1 ovarian = test system: IGROV1 ovarian
K-562 leukemia = test system: K-562 leukemia
LOX IMVI melanoma = test system: LOX IMVI melanoma
MDA-MB-231 breast = test system: MDA-MB-231 breast
MDA-MB-435 melanoma = test system: MDA-MB-435 melanoma
NCI-H226 lung = test system: NCI-H226 lung
NCI-H322M lung = test system: NCI-H322M lung
NCI/ADR-RES ovarian = test system: NCI/ADR-RES ovarian
OVCAR-3 ovarian = test system: OVCAR-3 ovarian
OVCAR-4 ovarian = test system: OVCAR-4 ovarian
OVCAR-5 ovarian = test system: OVCAR-5 ovarian
OVCAR-8 ovarian = test system: OVCAR-8 ovarian
PC-3 prostate = test system: PC-3 prostate
RXF 393 renal = test system: RXF 393 renal
SF-268 CNS = test system: SF-268 CNS
SF-295 CNS = test system: SF-295 CNS
SF-539 CNS = test system: SF-539 CNS
SK-MEL-28 melanoma = test system: SK-MEL-28 melanoma
SK-OV-3 ovarian = test system: SK-OV-3 ovarian
SNB-75 CNS = test system: SNB-75 CNS
T-47D breast = test system: T-47D breast
UACC-257 melanoma = test system: UACC-257 melanoma
UACC-62 melanoma = test system: UACC-62 melanoma
UO-31 renal = test system: UO-31 renal

C[C@@H](CN1CC(=O)NC(=O)C1)N1CC(=O)NC(=O)C1
GI50 (A549 NSCLC): 10100 nM | GI50 (CCRF-CEM leukemia): 13700 nM | TGI (CCRF-CEM leukemia): 29400 nM | GI50 (COLO 205 colon): 10600 nM | TGI (COLO 205 colon): 27800 nM | GI50 (DU-145 prostate): 52400 nM | GI50 (HL-60(TB) leukemia): 4320 nM | TGI (HL-60(TB) leukemia): 18400 nM | GI50 (HS 578T breast): 21200 nM | GI50 (KM12 colon): 91700 nM | GI50 (M14 melanoma): 55700 nM | GI50 (MALME-3M melanoma): 34600 nM | GI50 (MCF7 breast): 77700 nM | GI50 (MDA-MB-468 breast): 29100 nM | TGI (MDA-MB-468 breast): 57900 nM | GI50 (MOLT-4 leukemia): 5070 nM | TGI (MOLT-4 leukemia): 17200 nM | GI50 (NCI-H23 lung): 71800 nM | GI50 (NCI-H460 NSCLC): 19700 nM | GI50 (NCI-H522 lung): 53900 nM | GI50 (RPMI-8226 leukemia): 3650 nM | TGI (RPMI-8226 leukemia): 19700 nM | GI50 (SK-MEL-5 melanoma): 74800 nM | GI50 (SN12C renal): 74400 nM | GI50 (SNB-19 CNS): 96100 nM | GI50 (SR leukemia): 2150 nM | TGI (SR leukemia): 4680 nM | GI50 (SW-620 colon): 83400 nM | GI50 (TK-10 renal): 68000 nM

CN1CCN(c2cc(C(=O)Nc3cc4cc(-c5cnn(C)c5)ccc4cn3)ccn2)CC1
GI50 ([…]-0 renal): 154 nM | TGI (786-0 renal): 316 nM | GI50 (A498 renal): 32.8 nM | TGI (A498 renal): 158 nM | GI50 (A549 NSCLC): 30.7 nM | TGI (A549 NSCLC): 129 nM | GI50 (ACHN renal): 47.5 nM | TGI (ACHN renal): 219 nM | GI50 (BT-549 breast): 28.3 nM | TGI (BT-549 breast): 71.4 nM | GI50 (CAKI-1 renal): 35.3 nM | TGI (CAKI-1 renal): 210 nM | GI50 (CCRF-CEM leukemia): 25.6 nM | TGI (CCRF-CEM leukemia): 53.5 nM | GI50 (COLO 205 colon): 26 nM | TGI (COLO 205 colon): 64.1 nM | GI50 (DU-145 prostate): 50.2 nM | TGI (DU-145 prostate): 282 nM | GI50 (EKVX NSCLC): 62.5 nM | TGI (EKVX NSCLC): 1600 nM | GI50 (HCC-2998 colon): 105 nM | TGI (HCC-2998 colon): 287 nM | GI50 (HCT-15 colon): 39.1 nM | TGI (HCT-15 colon): 157 nM | GI50 (HL-60(TB) leukemia): 99.4 nM | TGI (HL-60(TB) leukemia): 219 nM | GI50 (HOP-62 NSCLC): 31.8 nM | TGI (HOP-62 NSCLC): 145 nM | GI50 (HOP-92 NSCLC): 39.6 nM | TGI (HOP-92 NSCLC): 398 nM | GI50 (HS 578T breast): 38.9 nM | TGI (HS 578T breast): 152 nM | GI50 (HT29 colon): 138 nM | TGI (HT29 colon): 286 nM | GI50 (IGROV1 ovarian): 52.1 nM | TGI (IGROV1 ovarian): 255 nM | GI50 (K-562 leukemia): 52.8 nM | TGI (K-562 leukemia): 345 nM | GI50 (KM12 colon): 32.9 nM | TGI (KM12 colon): 209 nM | GI50 (LOX IMVI melanoma): 51.7 nM | TGI (LOX IMVI melanoma): 172 nM | GI50 (M14 melanoma): 75.9 nM | TGI (M14 melanoma): 221 nM | GI50 (MALME-3M melanoma): 84.6 nM | TGI (MALME-3M melanoma): 213 nM | GI50 (MCF7 breast): 55.9 nM | TGI (MCF7 breast): 221 nM | GI50 (MDA-MB-231 breast): 87 nM | TGI (MDA-MB-231 breast): 654 nM | GI50 (MDA-MB-435 melanoma): 86.9 nM | TGI (MDA-MB-435 melanoma): 283 nM | GI50 (MDA-MB-468 breast): 26.8 nM | TGI (MDA-MB-468 breast): 53.9 nM | GI50 (MOLT-4 leukemia): 18 nM | TGI (MOLT-4 leukemia): 33 nM | GI50 (NCI-H226 lung): 131 nM | TGI (NCI-H226 lung): 370 nM | GI50 (NCI-H23 lung): 18.9 nM | TGI (NCI-H23 lung): 47.5 nM | GI50 (NCI-H322M lung): 68.2 nM | TGI (NCI-H322M lung): 858 nM | GI50 (NCI-H460 NSCLC): 51 nM | TGI (NCI-H460 NSCLC): 190 nM | GI50 (NCI-H522 lung): 26.6 nM | TGI (NCI-H522 lung): 65.5 nM | GI50 (NCI/ADR-RES ovarian): 71.4 nM | TGI (NCI/ADR-RES ovarian): 244 nM | GI50 (OVCAR-3 ovarian): 30.2 nM | TGI (OVCAR-3 ovarian): 82.5 nM | GI50 (OVCAR-4 ovarian): 58.9 nM | TGI (OVCAR-4 ovarian): 187 nM | GI50 (OVCAR-5 ovarian): 167 nM | TGI (OVCAR-5 ovarian): 640 nM | GI50 (OVCAR-8 ovarian): 72.4 nM | TGI (OVCAR-8 ovarian): 302 nM | GI50 (PC-3 prostate): 76.7 nM | TGI (PC-3 prostate): 514 nM | GI50 (RPMI-8226 leukemia): 24.5 nM | TGI (RPMI-8226 leukemia): 49.1 nM | GI50 (RXF 393 renal): 118 nM | TGI (RXF 393 renal): 245 nM | GI50 (SF-268 CNS): 142 nM | TGI (SF-268 CNS): 438 nM | GI50 (SF-295 CNS): 99.8 nM | TGI (SF-295 CNS): 314 nM | GI50 (SF-539 CNS): 121 nM | TGI (SF-539 CNS): 322 nM | GI50 (SK-MEL-28 melanoma): 125 nM | TGI (SK-MEL-28 melanoma): 259 nM | GI50 (SK-MEL-5 melanoma): 22.9 nM | TGI (SK-MEL-5 melanoma): 92.2 nM | GI50 (SK-OV-3 ovarian): 28.1 nM | TGI (SK-OV-3 ovarian): 112 nM | GI50 (SN12C renal): 55.3 nM | TGI (SN12C renal): 228 nM | GI50 (SNB-19 CNS): 41.6 nM | TGI (SNB-19 CNS): 10200 nM | GI50 (SNB-75 CNS): 105 nM | TGI (SNB-75 CNS): 261 nM | GI50 (SR leukemia): 19.5 nM | TGI (SR leukemia): 40.8 nM | GI50 (SW-620 colon): 33.6 nM | TGI (SW-620 colon): 1580 nM | GI50 (T-47D breast): 67 nM | TGI (T-47D breast): 340 nM | GI50 (TK-10 renal): 116 nM | TGI (TK-10 renal): 442 nM | GI50 (UACC-257 melanoma): 36.3 nM | TGI (UACC-257 melanoma): 107 nM | GI50 (UACC-62 melanoma): 27.8 nM | TGI (UACC-62 melanoma): 88.7 nM | GI50 (UO-31 renal): 158 nM | TGI (UO-31 renal): 3160 nM
